For assay [1], the target named is T1, Rezeptorsubtyp M₂ (Rattus norvegicus, UniProt P10980).
T1 construct: Herz; from tissue; host or cells: heart
T1 sequence (P10980 1-466): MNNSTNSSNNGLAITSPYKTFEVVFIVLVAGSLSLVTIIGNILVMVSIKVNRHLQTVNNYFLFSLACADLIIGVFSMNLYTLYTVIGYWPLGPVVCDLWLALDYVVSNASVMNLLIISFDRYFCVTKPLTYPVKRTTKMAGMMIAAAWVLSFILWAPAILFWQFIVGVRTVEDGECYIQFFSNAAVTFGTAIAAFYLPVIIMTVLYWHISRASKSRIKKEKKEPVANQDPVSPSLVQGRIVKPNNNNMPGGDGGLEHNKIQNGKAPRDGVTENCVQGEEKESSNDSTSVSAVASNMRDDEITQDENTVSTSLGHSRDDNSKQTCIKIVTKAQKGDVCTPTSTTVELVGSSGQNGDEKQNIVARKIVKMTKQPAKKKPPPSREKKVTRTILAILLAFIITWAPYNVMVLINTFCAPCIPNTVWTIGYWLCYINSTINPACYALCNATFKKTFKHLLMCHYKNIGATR
The assay is described as follows: Muscarinic receptor binding study, M₂ subtype, heart, [³H]N-methylscopolamine. The following applies: Organ Herz, [³H]Ligand N-Methylscopolamin, kind of constant not stated. An excerpt: (§1) Die Rezeptorbindungsstudien im muskarinisch cholinergen System wurden an den drei Rezeptorsubtypen gemäß den untenstehenden Literaturzitaten ausgeführt (Watson, M., H. I. Yamamura and W.R. Roeske 1983, Life Sci. 32, 3001-3011; Hammer, R., C.P. Berrie, N.I.M. Birdsall, A.S.V. Burgen and E.C. Hulme 1980, Nature 283, 90-92; Hammer, R., E. Giraldo, G.B. Schiavi, E. Monferini and H. Ladinsky 1986, Life Sci. 38, 1653-1662;).

For assay [2], the target named is T2, Rezeptorsubtyp M₁ (Rattus norvegicus, UniProt P08482).
T2 construct: HIPPOCAMPUS; from tissue; host or cells: hippocampus
T2 sequence (P08482 1-460): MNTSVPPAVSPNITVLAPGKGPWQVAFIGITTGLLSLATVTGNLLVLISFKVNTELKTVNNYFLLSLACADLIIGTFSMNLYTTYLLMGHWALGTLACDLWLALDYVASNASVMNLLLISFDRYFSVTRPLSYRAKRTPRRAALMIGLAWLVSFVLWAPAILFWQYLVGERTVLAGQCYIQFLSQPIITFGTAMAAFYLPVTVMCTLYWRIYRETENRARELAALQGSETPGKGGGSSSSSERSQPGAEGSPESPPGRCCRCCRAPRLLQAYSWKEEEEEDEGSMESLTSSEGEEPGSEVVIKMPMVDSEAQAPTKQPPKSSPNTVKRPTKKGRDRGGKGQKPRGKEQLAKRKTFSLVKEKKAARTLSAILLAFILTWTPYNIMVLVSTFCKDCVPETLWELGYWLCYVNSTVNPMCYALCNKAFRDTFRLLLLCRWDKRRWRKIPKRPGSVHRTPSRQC
The assay is described as follows: Muscarinic receptor binding study, M₁ subtype, hippocampus, [³H]pirenzepine. The conditions noted are these: Organ HIPPOCAMPUS, [³H]Ligand Pirenzepin, kind of constant not stated.
Excerpt: as §1

Assay [3] is described as follows: Haloperidol-induced dyskinesias in haloperidol-sensitised monkeys. In kind it is in vivo. The following applies: gegen Haloperidol sensibilisierte Affen; Dosis < 1 mg/kg i.m.
The target in assay [4] is T3, Rezeptorsubtyp M₃ (Rattus norvegicus, UniProt P08483).
T3 construct: Tränendrüse; from tissue; host or cells: lacrimal gland
The assay is described as follows: Muscarinic receptor binding study, M₃ subtype, lacrimal gland, [³H]N-methylscopolamine. The conditions noted are these: Organ Tränendrüse, [³H]Ligand N-Methylscopolamin, kind of constant not stated.
Excerpt: as §1

In assay [5] the target is Agonisten Bindungsstelle. Briefly: [³H]cis-methyldioxolane binding study (muscarinic agonist binding site). The following applies: [³H]Ligand cis-Methyldioxolan. An excerpt: Die erfindungsgemäßen Verbindungen verdrängen den muscarinen Agonisten mit hoher Affinität von der Agonisten Bindungsstelle. Die Durchführung der [3H]cis-Methyldioxolan-Bindungsstudien erfolgen analog zu A Closs et al., Naunyn Schmiedebergs Arch. Pharmacol 335, 372-377 (1987). Die Ergebnisse sind in Tabelle Ia zusammengestellt Tabelle Ia: […]

A short description of assay [6]: EEG of the awake rabbit (arousal reaction). The following applies: waches Kaninchen. Format: in vivo. The source says:
Die erfindungsgemäßen tertiären Amine der allgemeinen Formel I zeigen Affinitäten zu muscarinen Rezeptoren im ZNS und im Tierexperiment muscarine agonistische Eigenschaften im ZNS.

SMILES strings stand for the structures. Where only a bound is given, the exact number is not on record here.

T3 sequence (P08483 whole entry): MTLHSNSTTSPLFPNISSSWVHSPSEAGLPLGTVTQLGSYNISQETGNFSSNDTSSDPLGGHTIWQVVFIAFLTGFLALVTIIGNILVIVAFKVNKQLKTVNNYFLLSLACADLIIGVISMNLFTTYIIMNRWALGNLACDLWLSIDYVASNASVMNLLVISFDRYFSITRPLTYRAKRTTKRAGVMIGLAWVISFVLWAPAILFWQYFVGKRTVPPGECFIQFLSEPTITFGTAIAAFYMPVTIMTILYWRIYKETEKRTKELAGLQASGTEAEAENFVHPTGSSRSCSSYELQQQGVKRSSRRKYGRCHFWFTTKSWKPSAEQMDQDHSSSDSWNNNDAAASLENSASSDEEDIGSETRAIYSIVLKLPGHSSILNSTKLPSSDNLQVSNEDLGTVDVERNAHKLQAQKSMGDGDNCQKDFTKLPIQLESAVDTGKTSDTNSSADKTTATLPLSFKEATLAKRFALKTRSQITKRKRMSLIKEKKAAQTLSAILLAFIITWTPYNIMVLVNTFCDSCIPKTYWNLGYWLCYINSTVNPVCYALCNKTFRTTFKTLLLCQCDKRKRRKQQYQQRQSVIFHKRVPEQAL

For `CCN1CCc2c(oc(C)c2C)C1` [X=O, R₁=CH₃, R₂=CH₃, R₃=H, R₄=Et, R₅=H], the Rezeptorbindung in assay [1] and in assay [2] was 3,2 µMol throughout.

In the case of `Cc1cc2c(s1)CN(C)CC2` [X=S, R₁=CH₃, R₂=H, R₃=H, R₄=CH₃, R₅=H, 2,6-Dimethyl-4,5,6,7-tetrahydrothieno[2,3-c]pyridin], the “Dyskinesien zusammen mit unterschwelligen Dosen (Haloperidol)” value in assay [3] is given as “lösen zusammen mit unterschwelligen Dosen Dyskinesien aus”. Moreover, in assay [3], the “durch Haloperidol hervorgerufene Dyskinesien” value is “verstärken”. Further, the results for the Rezeptorbindung in assay [4], in assay [1] and in assay [2] were 53,1 µMol, 14 µmol and 7,5 µMol, respectively.

As for `Cc1cc2c(s1)CNCC2` [X=S, R₁=CH₃, R₂=H, R₃=H, R₄=H, R₅=H, 2-Methyl-4,5,6,7,-tetrahydro-thieno[2,3-c]pyridin], the Rezeptorbindung is above 100 µmol in assay [4], above 100 µmol in assay [1] and 39,6 µMol in assay [2].

`CCCCc1cc2c(o1)CN(C)CC2` [X=O, R₁=n-Bu, R₂=H, R₃=H, R₄=CH₃, R₅=H, 6-Methyl-2-n-butyl-4,5,6,7,-tetrahydro-furo[2.3-c]pyridin] displayed a Ki in assay [5] of 39 nM. For the same compound, the Rezeptorbindung in assay [1] is 0,7 µMol; in assay [2], 0,5 µMol.

On to `Cc1cc2c(s1)CN(C)CC2C` (stereo not drawn) [X=S, R₁=CH₃, R₂=H, R₃=H, R₄=CH₃, R₅=CH₃, 2,4,6-Trimethyl-4,5,6,7-tetrahydrothieno[2,3-c]pyridin], for which the figures for the Rezeptorbindung in assay [4], in assay [1] and in assay [2] were 34,1 µMol, 8,4 µMol and 5,8 µMol, respectively.

Take `CCN1CCc2cc(C)sc2C1` [X=S, R₁=CH₃, R₂=H, R₃=H, R₄=Et, R₅=H, 6-Ethyl-2-methyl-4,5,6,7-tetrahydrothieno[2,3-c]pyridin]: the Rezeptorbindung in assay [4] is on record as 11,4 µMol; in assay [1], 4,5 µMol; in assay [2], 2,2 µMol.

Regarding `CN1CCc2ccsc2C1` [X=S, R₁=H, R₂=H, R₃=H, R₄=CH₃, R₅=H, 6-Methyl-4,5,6,7,-tetrahydro-thieno[2,3-c]pyridin], the Rezeptorbindung in assay [4] was above 100 µmol; in assay [1] it was above 100 µmol; in assay [2], 36,3 µMol.

`CCCc1cc2c(o1)CN(C)CC2` [X=O, R₁=N-Pr, R₂=H, R₃=H, R₄=CH₃, R₅=H, 6-Methyl-2-n-propyl-4,5,6,7,-tetrahydro-furo[2.3-c]pyridin] displayed a Ki in assay [5] of 53 nM.

As to `Cc1cc2c(o1)CN(C)CC2` [X=O, R₁=CH₃, R₂=H, R₃=H, R₄=CH₃, R₅=H, 2,6-Dimethyl-4,5,6,7-tetrahydrofuro[2,3-c]pyridin], the “Arousal-Reaktion im EEG” value in assay [6] (1 mg/kg i.v.) and in assay [6] (3 mg/kg p.o.) was “eine für Cholinomimetica typische Arousal-Reaktion” throughout. This compound also showed an inhibition constant Ki in assay [5] of 81 nM. In addition, the figures for the Rezeptorbindung in assay [4], in assay [1] and in assay [2] were 24,2 µMol, 6,5 µMol and 8,3 µMol, respectively.

Consider `CC(C)Cc1cc2c(o1)CN(C)CC2` [X=O, R₁=iso-Bu, R₂=H, R₃=H, R₄=CH₃, R₅=H, 6-Methyl-2-iso-butyl-4,5,6,7,-tetrahydro-furo[2.3-c]pyridin], for which the Rezeptorbindung in assay [4] was 2,7 µMol; in assay [1], 2,5 µMol; in assay [2], 0,8 µMol.

The compound `CCCc1cc2c(o1)CNCC2` [X=O, R₁=n-Pr, R₂=H, R₃=H, R₄=H, R₅=H] came in with an inhibition constant Ki in assay [5] of 160 nM.

As to `CCc1cc2c(o1)CN(C)CC2` [X=O, R₁=Et, R₂=H, R₃=H, R₄=CH₃, R₅=H, 2-Ethyl-6-methyl-4,5,6,7-tetrahydro-furo[2,3-c]pyridin], in assay [5], the Ki was 52 nM. Further, the Rezeptorbindung in assay [1] is given as 1,0 µMol; in assay [2], 1,4 µMol.

Usually Ki stands for a measure of affinity in units of concentration, obtained from inhibition or displacement. A high value points to a looser hold on the target.

Source of the values: patent publication EP0314154A2, “Tetrahydrofuro- and thieno(2,3-c)pyridines, their use as a medicament and process for their preparation” (BOEHRINGER INGELHEIM KG, priority 1987, dated 1989).
